# Active and inactive are the calls of the source. The calls are words filed in the database; no cut-off is given here.
# Legend:
# Type in all cases: functional
# [1] = Cytotoxicity against human OVCAR4 cells at 10 uM after 48 hrs by SRB assay; conditions: OVCAR-4, 48 h, read-out: GI
# HT-29 = assay: Cytotoxicity against human HT-29 cells at 10 uM after 48 hrs by SRB assay; conditions: HT-29, 48 h, read-out: GI
# [2] = Cytotoxicity against human SF268 cells at 10 uM after 48 hrs by SRB assay; conditions: SF-268, 48 h, read-out: GI
# [3] = Cytotoxicity against human HOP92 cells at 10 uM after 48 hrs by SRB assay; conditions: HOP-92, 48 h, read-out: GI
# [4] = Cytotoxicity against human RPMI8226 cells at 10 uM after 48 hrs by SRB assay; conditions: RPMI-8226, 48 h, read-out: GI
# [5] = Cytotoxicity against human SF295 cells at 10 uM after 48 hrs by SRB assay; conditions: SF-295, 48 h, read-out: GI
# K562 = assay: Cytotoxicity against human K562 cells at 10 uM after 48 hrs by SRB assay; conditions: K562, 48 h, read-out: GI
# [6] = Cytotoxicity against human MOLT4 cells at 10 uM after 48 hrs by SRB assay; conditions: MOLT-4, 48 h, read-out: GI
# SK-MEL-2 = assay: Cytotoxicity against human SK-MEL-2 cells at 10 uM after 48 hrs by SRB assay
# CCRF-CEM = assay: Cytotoxicity against human CCRF-CEM cells at 10 uM after 48 hrs by SRB assay; conditions: read-out: GI
# A498 = assay: Cytotoxicity against human A498 cells at 10 uM after 48 hrs by SRB assay; conditions: A498, 48 h, read-out: GI
# [7] = Cytotoxicity against human SF539 cells at 10 uM after 48 hrs by SRB assay; conditions: SF-539, 48 h, read-out: GI
# [8] = Cytotoxicity against human SNB75 cells at 10 uM after 48 hrs by SRB assay; conditions: SNB-75, 48 h, read-out: GI
# NCI-H226 = assay: Cytotoxicity against human NCI-H226 cells at 10 uM after 48 hrs by SRB assay; conditions: NCI-H226, 48 h, read-out: GI
# [9] = Cytotoxicity against human OVCAR8 cells at 10 uM after 48 hrs by SRB assay; conditions: OVCAR-8, 48 h, read-out: GI
# SK-MEL-5 = assay: Cytotoxicity against human SK-MEL-5 cells at 10 uM after 48 hrs by SRB assay; conditions: SK-MEL-5, 48 h, read-out: GI
# T47D = assay: Cytotoxicity against human T47D cells at 10 uM after 48 hrs by SRB assay; conditions: read-out: GI
# [10] = Cytotoxicity against human UO31 cells at 10 uM after 48 hrs by SRB assay; conditions: UO-31, 48 h, read-out: GI
# 786-0 = assay: Cytotoxicity against human 786-0 cells at 10 uM after 48 hrs by SRB assay; conditions: 786-0, 48 h, read-out: GI
# RXF 393 = assay: Cytotoxicity against human RXF393 cells at 10 uM after 48 hrs by SRB assay
# [11] = Cytotoxicity against human NCI-ADR-RES cells at 10 uM after 48 hrs by SRB assay; conditions: read-out: GI
# HL-60(TB) = assay: Cytotoxicity against human HL-60(TB) cells at 10 uM after 48 hrs by SRB assay
# [12] = Cytotoxicity against human OVCAR3 cells at 10 uM after 48 hrs by SRB assay; conditions: OVCAR-3, 48 h, read-out: GI
# [13] = Cytotoxicity against human UACC62 cells at 10 uM after 48 hrs by SRB assay; conditions: UACC-62, 48 h, read-out: GI
# [14] = Cytotoxicity against human UACC257 cells at 10 uM after 48 hrs by SRB assay; conditions: UACC-257, 48 h, read-out: GI
# M14 = assay: Cytotoxicity against human M14 cells at 10 uM after 48 hrs by SRB assay
# [15] = Cytotoxicity against human HCT116 cells at 10 uM after 48 hrs by SRB assay; conditions: HCT-116, 48 h, read-out: GI
# MDA-MB-231 = assay: Cytotoxicity against human MDA-MB-231 cells at 10 uM after 48 hrs by SRB assay; conditions: MDA-MB-231, 48 h, read-out: GI
# ACHN = assay: Cytotoxicity against human ACHN cells at 10 uM after 48 hrs by SRB assay; conditions: read-out: GI
# [16] = Cytotoxicity against human SW620 cells at 10 uM after 48 hrs by SRB assay; conditions: SW-620, 48 h, read-out: GI
# HCC 2998 = assay: Cytotoxicity against human HCC2998 cells at 10 uM after 48 hrs by SRB assay
# [17] = Cytotoxicity against human OVCAR5 cells at 10 uM after 48 hrs by SRB assay; conditions: OVCAR-5, 48 h, read-out: GI
# DU-145 = assay: Cytotoxicity against human DU145 cells at 10 uM after 48 hrs by SRB assay
# A549 = assay: Cytotoxicity against human A549 cells at 10 uM after 48 hrs by SRB assay; conditions: A549, 48 h, read-out: GI
# MCF7 = assay: Cytotoxicity against human MCF7 cells at 10 uM after 48 hrs by SRB assay; conditions: MCF7, 48 h, read-out: GI
# SN12C = assay: Cytotoxicity against human SN12C cells at 10 uM after 48 hrs by SRB assay; conditions: read-out: GI
# [18] = Cytotoxicity against human IGROV1 cells at 10 uM after 48 hrs by SRB assay; conditions: IGROV-1, 48 h, read-out: GI
# [19] = Cytotoxicity against human BT549 cells at 10 uM after 48 hrs by SRB assay; conditions: BT-549, 48 h, read-out: GI
# [20] = Cytotoxicity against human HCT15 cells at 10 uM after 48 hrs by SRB assay; conditions: HCT-15, 48 h, read-out: GI
# NCI-H460 = assay: Cytotoxicity against human NCI-H460 cells at 10 uM after 48 hrs by SRB assay
# [21] = Cytotoxicity against human HOP62 cells at 10 uM after 48 hrs by SRB assay; conditions: HOP-62, 48 h, read-out: GI
# NCI-H522 = assay: Cytotoxicity against human NCI-H522 cells at 10 uM after 48 hrs by SRB assay; conditions: NCI-H522, 48 h, read-out: GI
# SR = assay: Cytotoxicity against human SR cells at 10 uM after 48 hrs by SRB assay; conditions: read-out: GI
# MDA-MB-435 = assay: Cytotoxicity against human MDA-MB-435 cells at 10 uM after 48 hrs by SRB assay; conditions: MDA-MB-435, 48 h, read-out: GI
# [22] = Cytotoxicity against human Caki1 cells at 10 uM after 48 hrs by SRB assay; conditions: CAKI-1, 48 h, read-out: GI
# [23] = Cytotoxicity against human SNB19 cells at 10 uM after 48 hrs by SRB assay; conditions: SNB-19, 48 h, read-out: GI
# SK-MEL-28 = assay: Cytotoxicity against human SK-MEL-28 cells at 10 uM after 48 hrs by SRB assay
# MDA-MB-468 = assay: Cytotoxicity against human MDA-MB-468 cells at 10 uM after 48 hrs by SRB assay; conditions: MDA-MB-468, 48 h, read-out: GI
# SK-OV-3 = assay: Cytotoxicity against human SKOV3 cells at 10 uM after 48 hrs by SRB assay
# [24] = Cytotoxicity against human PC3 cells at 10 uM after 48 hrs by SRB assay; conditions: PC-3, 48 h, read-out: GI
# [25] = Cytotoxicity against human Hs 578T cells at 10 uM after 48 hrs by SRB assay; conditions: read-out: GI
# KM12 = assay: Cytotoxicity against human KM12 cells at 10 uM after 48 hrs by SRB assay
# U-251 = assay: Cytotoxicity against human U251 cells at 10 uM after 48 hrs by SRB assay
# TK-10 = assay: Cytotoxicity against human TK10 cells at 10 uM after 48 hrs by SRB assay
# [26] = Cytotoxicity against human COLO205 cells at 10 uM after 48 hrs by SRB assay; conditions: COLO 205, 48 h, read-out: GI
# [27] = Cytotoxicity against human LOXIMVI cells at 10 uM after 48 hrs by SRB assay; conditions: LOX IMVI, read-out: GI
# Malme-3M = assay: Cytotoxicity against human MALME-3M cells at 10 uM after 48 hrs by SRB assay
structure (smiles),measurement,setting,value
Cc1nc2cc(Nc3nc(Nc4ccc(F)cc4)nc(Nc4ccc(F)cc4)n3)ccc2n1Cc1ccccc1,inhibition of growth at 10 µM,[1],14.4%
same,inhibition of growth at 10 µM,HT-29,1.3%
same,inhibition of growth at 10 µM,[2],3.68%
same,inhibition of growth at 10 µM,[3],37.6%
same,inhibition of growth at 10 µM,[4],14.3%
same,inhibition of growth at 10 µM,[5],8.21%
same,inhibition of growth at 10 µM,K562,18.6%
same,inhibition of growth at 10 µM,[6],15.2%
same,growth inhibition (GI),SK-MEL-2,inactive
same,inhibition of growth at 10 µM,CCRF-CEM,10.6%
same,inhibition of growth at 10 µM,A498,21.9%
same,inhibition of growth at 10 µM,[7],10.4%
same,inhibition of growth at 10 µM,[8],24.8%
same,inhibition of growth at 10 µM,NCI-H226,13.8%
same,inhibition of growth at 10 µM,[9],9.21%
same,inhibition of growth at 10 µM,SK-MEL-5,1.09%
same,inhibition of growth at 10 µM,T47D,10.7%
same,inhibition of growth at 10 µM,[10],39.3%
same,inhibition of growth at 10 µM,786-0,13.2%
same,growth inhibition (GI),RXF 393,inactive
same,inhibition of growth at 10 µM,[11],10.6%
same,growth inhibition (GI),HL-60(TB),inactive
same,inhibition of growth at 10 µM,[12],4.79%
same,inhibition of growth at 10 µM,[13],10.2%
same,inhibition of growth at 10 µM,[14],3.11%
same,growth inhibition (GI),M14,inactive
same,inhibition of growth at 10 µM,[15],12.2%
same,inhibition of growth at 10 µM,MDA-MB-231,24.5%
same,inhibition of growth at 10 µM,ACHN,7.88%
same,inhibition of growth at 10 µM,[16],3.96%
same,growth inhibition (GI),HCC 2998,inactive
same,inhibition of growth at 10 µM,[17],4.24%
same,growth inhibition (GI),DU-145,inactive
same,inhibition of growth at 10 µM,A549,8.48%
same,inhibition of growth at 10 µM,MCF7,11.5%
same,inhibition of growth at 10 µM,SN12C,5.75%
same,inhibition of growth at 10 µM,[18],16.9%
same,inhibition of growth at 10 µM,[19],5.26%
same,inhibition of growth at 10 µM,[20],10.8%
same,growth inhibition (GI),NCI-H460,inactive
same,inhibition of growth at 10 µM,[21],8.91%
same,inhibition of growth at 10 µM,NCI-H522,14.2%
same,inhibition of growth at 10 µM,SR,18.6%
same,inhibition of growth at 10 µM,MDA-MB-435,0.94%
same,inhibition of growth at 10 µM,[22],10.1%
same,inhibition of growth at 10 µM,[23],3.99%
same,growth inhibition (GI),SK-MEL-28,inactive
same,inhibition of growth at 10 µM,MDA-MB-468,9.45%
same,growth inhibition (GI),SK-OV-3,inactive
same,inhibition of growth at 10 µM,[24],23.2%
same,inhibition of growth at 10 µM,[25],10.4%
same,growth inhibition (GI),KM12,inactive
same,growth inhibition (GI),U-251,inactive
same,growth inhibition (GI),TK-10,inactive
same,inhibition of growth at 10 µM,[26],2.84%
same,inhibition of growth at 10 µM,[27],7.8%
same,growth inhibition (GI),Malme-3M,inactive

# Reference: ChEMBL document CHEMBL3745645, “Synthesis, in vitro antitumor activity, dihydrofolate reductase inhibition, DNA intercalation and structure-activity relationship studies of 1,3,5-triazine analogues” (Bioorg Med Chem Lett, 2016)
